Data taken from publication PMC4192597, “Antimicrobials, Stress and Mutagenesis” (PLoS Pathogens, 2014).
≈ marks a conversion by molar mass, not a printed value. Where two headings read alike, the source gives them in different places.

Tests used:
E. coli MG1655 [1] = experiment: Minimal inhibitory concentration (MIC), micro-dilution; format: cell-based, Escherichia coli; conditions: inoculum 2×10^8 cfu/ml, 24 h, liquid MH medium, 37°C
Protocol: E. coli K-12 MG1655 was used for all experiments, grown in liquid Mueller-Hilton (MH) agar or agarose, unless otherwise indicated. All experiments were carried out at 37°C.
MICs were determined according to CLSI recommendations by a micro-dilution method with the exception that the inoculum size that was adjusted to 2×10^8 cfu/ml from a regrowth of overnight cultures to be consistent with the mutagenesis experiments. […] Polypropylene non-binding plates (Th. Geyer, Germany) were used for all experiments.

E. coli MG1655 [2] = experiment: microbe, parasite or virus in culture; format: cell-based, Escherichia coli; conditions: 4 hours, 50% reduction of CFUs vs control, Mueller Hinton Broth, 37°C, five replicates, repeated twice
Protocol: The MIC50s for all antimicrobials were determined by inoculating strains grown to mid-log phase into the wells of a 96-microwell plate. Approximately 10^2 cells from overnight cultures were inoculated into tubes containing 10 ml of Mueller Hinton Broth medium, and the tubes were incubated at 37°C with strong shaking until the mid-log phase of growth (approximately 10^8 cells/ml). […] The plates were incubated at 37°C for 4 h with continuous shaking in a plate reader (Synergy 2, BioTeK). After four hours, aliquots from wells with OD^600 readings ranging from 10 to 90% values in comparison with the control, were serially diluted in sterile 0.9% NaCl, and incubated during 1 hour to allow the resolution of filaments as consequence of SOS activation, if any. Bacterial suspensions were plated in Mueller Hinton Broth agar plates to estimate the viability as colony forming units (CFUs). Five replicates per concentration were prepared and the experiments were repeated twice.

[3] = tested on: E. coli stress response genes (strain MG1655); experiment: Relative gene expression of stress response genes by quantitative real-time PCR; format: cell-based, Escherichia coli; conditions: qPCR; for Result, cpxA / Result, cpxR / Result, dinB / Result, lexA / Result, marR / Result, oxyR / Result, phoP / Result, phoQ / Expression, cpxA (Envelope stress) / Expression, cpxR (Envelope stress) / Expression, dinB (SOS response) / Expression, lexA (SOS response) / Expression, marR (Independent multiple antibiotic resistance) / Expression, oxyR (Oxidative stress) / Expression, phoP (Envelope stress) / Expression, phoQ (Envelope stress) / Expression, recA (SOS response) / Expression, rpoE (Envelope stress) / Expression, rpoS (Sigma S response) / Expression, umuC (SOS response) / Result, recA / Result, rpoE / Result, rpoS / Result, umuC: 20 minutes exposure vs non-treated bacteria; for Result, cpxA / Result, cpxR / Result, dinB / Result, lexA / Result, marR / Result, oxyR / Result, phoP / Result, phoQ / Result, recA / Result, rpoE / Result, rpoS / Result, umuC: REST 2009 randomisation test; for Expression, cpxA (Envelope stress) / Expression, cpxR (Envelope stress) / Expression, dinB (SOS response) / Expression, lexA (SOS response) / Expression, marR (Independent multiple antibiotic resistance) / Expression, oxyR (Oxidative stress) / Expression, phoP (Envelope stress) / Expression, phoQ (Envelope stress) / Expression, recA (SOS response) / Expression, rpoE (Envelope stress) / Expression, rpoS (Sigma S response) / Expression, umuC (SOS response): normalized to arcA, mdoG, tus, Pexiganan 16, Melittin 16, Kanamycin 16, Ciprofloxacin 0.5, Lysozyme 128, Ampicillin 32 μg/ml, three biological replicates; on Result, cpxR: key: NDE: non-differentially expressed, p-value ≥ 0,05; UP: upregulated, p-value ≤ 0,05; DOWN: downregulated, p-value ≤ 0,05; on Result, oxyR: key: NDE: non-differentially expressed, p-value ≥ 0,05; UP: upregulated, p-value ≤ 0,05; DOWN: downregulated, p-value ≤ 0,05; on Result, rpoE: key: NDE: non-differentially expressed, p-value ≥ 0,05; UP: upregulated, p-value ≤ 0,05; DOWN: downregulated, p-value ≤ 0,05
Protocol: Preparation of each of the six treatments and the control samples was carried out by two operators on three consecutive days, thereby comprising three biological replicates for each of the six experimental and one control groups. To obtain the starting material for the experiment, a fresh bacterial culture was grown from a glycerol stock on Mueller-Hinton (MH) agar plates at 37°C for 18–24 hours. One well-isolated colony per biological replicate was used to inoculate 2 ml of liquid MH (Sigma) in a 10 ml sterile polypropylene tube and incubated at 37°C for 16 hours with mild shaking. The overnight (ON) culture was then diluted 1∶100 in MH, subdivided into seven 10 ml aliquots and incubated in 50 ml-Falcon tubes at 37°C for 2.5 hours at 220 rpm. When the OD600 of bacterial cultures reached 0.5–0.7, respective antibiotics and AMPs were added to a concentration to match with those used in the mutagenesis experiments. These bacterial cultures were incubated for 20 minutes at 37°C with gentle shaking. Two ml of bacterial cultures from each treatment and the control were collected, immediately centrifuged at 10000 g for 2 minutes and the supernatant was removed to stop the treatment. The bacterial pellet was then resuspended in 1 ml MH, followed by an addition of 1 ml of RNAprotect Bacteria Reagent (Qiagen), 5 minutes incubation and centrifugation at 10000 g for 2 minutes at room temperature. The supernatant was discarded and the bacterial pellet was immediately frozen and stored at −80°C until RNA extraction.
Total RNA was isolated using RNeasy kit (Qiagen) according to the manufacturer's instructions and eluted in 50 µl of RNase-free water. The nucleic acid yield and purity were determined by measuring the optical density at A260/280 using a Nanodrop spectrophotometer (Thermo Scientific). RNA samples were treated with TURBO DNase (Life Technologies). Briefly, ten µg of RNA were used in a total volume of 500 µl containing 20 units of TURBO DNase, incubated for 30 minutes at 37°C, immediately followed by RNeasy (Qiagen) cleanup and elution in 30 µl of RNase-free water. Following DNase treatment, RNA integrity was assessed using Agilent RNA 6000 Nano kit and 2100 Bioanalyzer instrument (both Agilent Technologies).
High-Capacity cDNA Reverse Transcription Kit with RNase Inhibitor (Applied Biosystems) was used for cDNA synthesis. Initially, to ensure linear conversion of the transcripts, the dynamic range of reverse transcription reaction was tested by performing a standard curve with cDNA, synthesised using various input amounts of pooled RNA. Total RNA (250 ng per reaction) and random primers were used for cDNA synthesis. To obtain sufficient amount of cDNA, several batches of 20 µl RT reactions were pooled, diluted 50-fold with RNase-free water and stored in single-use aliquots at −80°C until further use. All 21 samples were tested for presence of contaminating genomic DNA by running the mdoG assay with cDNA and the respective no reverse transcription (−RT) controls.
Escherichia coli strain K-12 substrain MG1655 complete genome (accession U00096) sequence was downloaded from NCBI database (www.ncbi.nlm.nih.gov) and used for primer design. Target sequence accession number, location of the amplicon, amplicon length and primer sequences for each assay can be found in table S2. Primers were designed using Primer Express software (Applied Biosystems) and optimized for annealing temperature of 60°C. Each primer pair and amplicon were checked for secondary structure formation using Oligo Tool (Integrated DNA technologies, http://eu.idtdna.com/analyzer/Applications/OligoAnalyzer/).

[4] = tested on: E. coli stress response genes; conditions: cited from earlier work
[5] = Escherichia coli, read-out: MIC50
[6] = ampicillin 5 μg/ml, 120 min, ref Kohanski,2007
[7] = norfloxacin 250 ng/ml, 30 min, ref Kohanski,2007
[8] = norfloxacin 250 ng/ml, 60 min, ref Kohanski,2007
[9] = norfloxacin 15 μg/ml, 20 min, gyrA+/parCr, ref Peter,2004
[10] = norfloxacin 15 μg/ml, 30min, gyrAr/parCCr cells, ref Peter,2004

Molecule	MIC50 (E. coli MG1655 [2]; [5]) [µg/mL]	Result, cpxA [3]	Result, cpxR [3]	Result, dinB [3]	Result, lexA [3]	Result, marR [3]	Result, oxyR [3]	Result, phoP [3]	Result, phoQ [3]	Expression, cpxA (Envelope stress) [3]	Expression, cpxR (Envelope stress) [3]	Expression, dinB (SOS response) [3]	Expression, lexA (SOS response) [3]	Expression, oxyR (Oxidative stress) [3]	Expression, phoP (Envelope stress) [3]	Expression, phoQ (Envelope stress) [3]	Expression, recA (SOS response) [3]	Expression, rpoE (Envelope stress) [3]	Expression, rpoS (Sigma S response) [3]	Expression, umuC (SOS response) [3]	also measured
CC1(C)S[C@@H]2[C@H](NC(=O)[C@H](N)c3ccccc3)C(=O)N2[C@H]1C(=O)O [Ampicillin]	3.2	NDE	NDE	NDE	NDE	UP (2.5-fold)	NDE	NDE	NDE	1.083	0.988	1.623	1.563	0.923	1.026	0.96	1.627	0.815	1.31	1.373	MIC (E. coli MG1655 [1]; Escherichia coli, read-out: MIC): 4 µg/mL (≈ 11.4 µM); Expression, marR (Independent multiple antibiotic resistance) [3]: 2.498; expression, lexA (microarray database) [4, 6]: 2.143; expression, marR (microarray database) [4, 6]: 4.064; expression, phoP (microarray database) [4, 6]: -2.302; expression, rpoS (microarray database) [4, 6]: -2.26; expression, rpoE (microarray database) ([4]; ampicillin 25 μg/ml, 30 min, ref Shaw,2003): -4.545
O=C(O)c1cn(C2CC2)c2cc(N3CCNCC3)c(F)cc2c1=O [Ciprofloxacin]	0.05	DOWN (2.25-fold)	NDE	UP (14.2-fold)	UP (10.5-fold)	DOWN (5.35-fold)	NDE	NDE	NDE	0.443	0.425	14.157	10.527	3.552	0.655	0.48	66.583	0.391	0.479	11.255	fold downregulation, cpxA ([3]; 20 minutes exposure): 2.25 fold; fold downregulation, marR ([3]; 20 minutes exposure): 5.35 fold; fold downregulation, rpoS ([3]; 20 minutes exposure): 2.08 fold; fold upregulation, dinB ([3]; 20 minutes exposure): 14.2 fold; fold upregulation, lexA ([3]; 20 minutes exposure): 10.5 fold; fold upregulation, recA ([3]; 20 minutes exposure): 66.6 fold; fold upregulation, umuC ([3]; 20 minutes exposure): 11.26 fold; Result, recA [3]: UP (66.6-fold); Result, rpoE [3]: NDE; Result, rpoS [3]: DOWN (2.08-fold); Result, umuC [3]: UP (11.26-fold)
CC[C@H](C)[C@H](NC(=O)[C@H](CCCCN)NC(=O)[C@H](CCC(=O)O)NC(=O)[C@H](CCCCN)NC(=O)[C@H](CO)NC(=O)[C@H](CCCCN)NC(=O)[C@H](CCCNC(=N)N)NC(=O)[C@H](Cc1ccccc1)NC(=O)[C@H](Cc1ccccc1)NC(=O)[C@H](CC(=O)O)NC(=O)CNC(=O)[C@H](CC(C)C)NC(=O)[C@@H](N)CC(C)C)C(=O)NCC(=O)N[C@@H](CCCCN)C(=O)N[C@@H](CCC(=O)O)C(=O)N[C@@H](Cc1ccccc1)C(=O)N[C@@H](CCCCN)C(=O)N[C@@H](CCCNC(=N)N)C(=O)N[C@H](C(=O)N[C@H](C(=O)N[C@@H](CCC(N)=O)C(=O)N[C@@H](CCCNC(=N)N)C(=O)N[C@H](C(=O)N[C@@H](CCCCN)C(=O)N[C@@H](CC(=O)O)C(=O)N[C@@H](Cc1ccccc1)C(=O)N[C@@H](CC(C)C)C(=O)N[C@@H](CCCNC(=N)N)C(=O)N[C@@H](CC(N)=O)C(=O)N[C@@H](CC(C)C)C(=O)N[C@H](C(=O)N1CCC[C@H]1C(=O)N[C@@H](CCCNC(=N)N)C(=O)N[C@H](C(=O)N[C@@H](CCC(=O)O)C(=O)N[C@@H](CO)C(=O)O)[C@@H](C)O)C(C)C)[C@@H](C)CC)C(C)C)[C@@H](C)CC [LL-37]	–	–	–	–	–	–	–	–	–	–	–	–	–	–	–	–	–	–	–	–	MIC50 (E. coli MG1655 [2]): 8 µg/mL
CCn1cc(C(=O)O)c(=O)c2cc(F)c(N3CCNCC3)cc21 [norfloxacin]	–	–	–	–	–	–	–	–	–	–	–	–	–	–	–	–	–	–	–	–	expression, recA (microarray database) ([4]; norfloxacin 0.12 μg/ml, 30 min, ref Shaw,2003): 11.1; expression, rpoE (microarray database) [4, 7]: -2.308; expression, rpoS (microarray database) [4, 7]: -2.24; expression, cpxR (microarray database) [4, 8]: -2.588; expression, phoP (microarray database) [4, 8]: -2.179; expression, phoQ (microarray database) ([4]; norfloxacin 15 μg/ml, 4 min, gyrA+/parC+, ref Peter,2004): -2.778; expression, cpxA (microarray database) ([4]; norfloxacin 15 μg/ml, 10 min, gyrA+/parCr, ref Peter,2004): -2.439; expression, dinB (microarray database) [4, 9]: 2.57; expression, oxyR (microarray database) [4, 9]: 4.05; expression, lexA (microarray database) [4, 10]: 5; expression, umuC (microarray database) [4, 10]: 8.421; expression, marR (microarray database) ([4]; norfloxacin (30min) / spectinmycin, 250 ng/ml, 30 min, spectinomycin (400 μg/ml), ref Kohanski,2007): -3.206
Human lysozyme: human lysozyme obtained from Sigma	–	NDE	NDE	NDE	NDE	NDE	NDE	NDE	NDE	0.902	0.908	1.116	1.18	1.334	0.794	0.667	1.27	0.784	0.899	1.056	MIC (E. coli MG1655 [1]): 20 µg/mL; MIC50 (E. coli MG1655 [2]): 12.8 µg/mL; Result, recA [3]: NDE; Result, rpoE [3]: NDE; Result, rpoS [3]: NDE; Result, umuC [3]: NDE; Expression, marR (Independent multiple antibiotic resistance) [3]: 0.633
